US10544143B2, “4-azaindole compounds” (BRISTOL-MYERS SQUIBB COMPANY, priority 2017, dated 2020)

How the values were obtained:
human TLR8 = human TLR8 (Homo sapiens (Human), UniProt Q9NR97); assay: TLR8 inhibition reporter assay (HEK-Blue SEAP); settings: read-out: TLR8 IC50; HEK-Blue human TLR8 cells, R848 15.9 μM;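 also: SEAP driven by IFN-β minimal promoter carrying NF-κB and AP-1 sites, compounds dosed 0.05 nM to 50 µM for 22 h, inhibition scaled between agonist-plus-DMSO and reference-inhibitor wells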
Chain of human TLR8 (Q9NR97 27-1041): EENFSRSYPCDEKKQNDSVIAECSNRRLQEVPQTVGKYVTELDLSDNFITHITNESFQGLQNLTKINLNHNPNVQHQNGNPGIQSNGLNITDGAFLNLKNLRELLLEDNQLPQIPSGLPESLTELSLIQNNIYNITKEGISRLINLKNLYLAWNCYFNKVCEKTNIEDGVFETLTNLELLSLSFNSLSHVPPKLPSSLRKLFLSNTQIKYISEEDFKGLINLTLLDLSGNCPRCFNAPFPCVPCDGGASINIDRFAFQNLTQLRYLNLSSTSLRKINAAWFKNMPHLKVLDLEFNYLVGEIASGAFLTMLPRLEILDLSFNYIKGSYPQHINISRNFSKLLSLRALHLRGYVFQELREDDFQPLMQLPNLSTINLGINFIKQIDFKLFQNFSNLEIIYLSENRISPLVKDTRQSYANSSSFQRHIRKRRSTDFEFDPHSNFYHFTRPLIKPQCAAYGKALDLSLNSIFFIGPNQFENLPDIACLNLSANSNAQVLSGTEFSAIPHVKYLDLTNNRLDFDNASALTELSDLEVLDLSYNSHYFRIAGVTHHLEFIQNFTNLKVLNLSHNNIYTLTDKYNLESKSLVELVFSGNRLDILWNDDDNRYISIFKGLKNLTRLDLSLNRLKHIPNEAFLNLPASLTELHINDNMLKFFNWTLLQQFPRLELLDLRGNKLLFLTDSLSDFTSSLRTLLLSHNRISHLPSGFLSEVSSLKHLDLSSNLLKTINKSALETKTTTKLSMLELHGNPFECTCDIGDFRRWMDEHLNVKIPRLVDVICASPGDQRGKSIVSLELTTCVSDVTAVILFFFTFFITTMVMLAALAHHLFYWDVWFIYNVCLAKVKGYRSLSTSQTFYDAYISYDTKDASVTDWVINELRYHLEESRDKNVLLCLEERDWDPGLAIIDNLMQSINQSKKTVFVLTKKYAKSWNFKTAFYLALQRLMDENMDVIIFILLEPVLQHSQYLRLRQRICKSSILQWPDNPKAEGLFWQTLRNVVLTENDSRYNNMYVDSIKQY

human TLR7 = human TLR7 (Homo sapiens (Human), UniProt Q9NYK1); assay: TLR7 inhibition reporter assay (HEK-Blue SEAP); assay type: cell-based; settings: HEK-Blue human TLR7 cells, gardiquimod 7.5 μM
Chain of human TLR7 (Q9NYK1 27-1049): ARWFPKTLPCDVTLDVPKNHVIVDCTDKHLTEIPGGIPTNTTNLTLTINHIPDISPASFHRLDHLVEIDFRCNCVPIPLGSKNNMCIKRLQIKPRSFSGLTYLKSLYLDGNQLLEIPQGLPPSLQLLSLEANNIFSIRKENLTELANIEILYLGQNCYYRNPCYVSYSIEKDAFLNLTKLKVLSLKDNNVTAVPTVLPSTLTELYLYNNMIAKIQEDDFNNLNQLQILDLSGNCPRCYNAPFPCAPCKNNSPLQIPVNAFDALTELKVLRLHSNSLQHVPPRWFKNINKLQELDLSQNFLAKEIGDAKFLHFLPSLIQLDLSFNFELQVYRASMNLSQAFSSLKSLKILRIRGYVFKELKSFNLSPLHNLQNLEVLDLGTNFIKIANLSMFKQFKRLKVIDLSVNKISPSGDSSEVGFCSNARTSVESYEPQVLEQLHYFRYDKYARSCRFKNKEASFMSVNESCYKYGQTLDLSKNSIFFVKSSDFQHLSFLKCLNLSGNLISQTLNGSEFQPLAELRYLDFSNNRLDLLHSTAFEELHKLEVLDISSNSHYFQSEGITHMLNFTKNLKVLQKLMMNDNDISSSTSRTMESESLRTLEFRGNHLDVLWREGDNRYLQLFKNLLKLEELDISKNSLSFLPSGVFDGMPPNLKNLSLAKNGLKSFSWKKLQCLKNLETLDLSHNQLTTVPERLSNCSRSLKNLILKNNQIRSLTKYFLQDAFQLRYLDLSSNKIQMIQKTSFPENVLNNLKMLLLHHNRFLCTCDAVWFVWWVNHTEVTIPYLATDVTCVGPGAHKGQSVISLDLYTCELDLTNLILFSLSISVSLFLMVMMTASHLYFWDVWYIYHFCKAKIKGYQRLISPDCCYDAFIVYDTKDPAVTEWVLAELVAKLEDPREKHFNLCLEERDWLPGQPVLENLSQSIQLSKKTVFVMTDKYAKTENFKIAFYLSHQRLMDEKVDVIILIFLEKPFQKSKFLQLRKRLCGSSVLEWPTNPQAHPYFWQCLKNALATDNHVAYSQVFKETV

human TLR9 = human TLR9 (Homo sapiens (Human), UniProt Q9NR96); assay: TLR9 inhibition reporter assay (HEK-Blue SEAP); settings: read-out: TLR9 IC50; HEK-Blue human TLR9 cells, ODN2006 5 nM;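 also: SEAP driven by an IFN-β minimal promoter with NF-κB and AP-1 sites, read after 22 h, compounds dosed 0.05 nM–50 µM, inhibition scaled between agonist plus DMSO and reference-inhibitor wells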
Chain of human TLR9 (Q9NR96 26-1032): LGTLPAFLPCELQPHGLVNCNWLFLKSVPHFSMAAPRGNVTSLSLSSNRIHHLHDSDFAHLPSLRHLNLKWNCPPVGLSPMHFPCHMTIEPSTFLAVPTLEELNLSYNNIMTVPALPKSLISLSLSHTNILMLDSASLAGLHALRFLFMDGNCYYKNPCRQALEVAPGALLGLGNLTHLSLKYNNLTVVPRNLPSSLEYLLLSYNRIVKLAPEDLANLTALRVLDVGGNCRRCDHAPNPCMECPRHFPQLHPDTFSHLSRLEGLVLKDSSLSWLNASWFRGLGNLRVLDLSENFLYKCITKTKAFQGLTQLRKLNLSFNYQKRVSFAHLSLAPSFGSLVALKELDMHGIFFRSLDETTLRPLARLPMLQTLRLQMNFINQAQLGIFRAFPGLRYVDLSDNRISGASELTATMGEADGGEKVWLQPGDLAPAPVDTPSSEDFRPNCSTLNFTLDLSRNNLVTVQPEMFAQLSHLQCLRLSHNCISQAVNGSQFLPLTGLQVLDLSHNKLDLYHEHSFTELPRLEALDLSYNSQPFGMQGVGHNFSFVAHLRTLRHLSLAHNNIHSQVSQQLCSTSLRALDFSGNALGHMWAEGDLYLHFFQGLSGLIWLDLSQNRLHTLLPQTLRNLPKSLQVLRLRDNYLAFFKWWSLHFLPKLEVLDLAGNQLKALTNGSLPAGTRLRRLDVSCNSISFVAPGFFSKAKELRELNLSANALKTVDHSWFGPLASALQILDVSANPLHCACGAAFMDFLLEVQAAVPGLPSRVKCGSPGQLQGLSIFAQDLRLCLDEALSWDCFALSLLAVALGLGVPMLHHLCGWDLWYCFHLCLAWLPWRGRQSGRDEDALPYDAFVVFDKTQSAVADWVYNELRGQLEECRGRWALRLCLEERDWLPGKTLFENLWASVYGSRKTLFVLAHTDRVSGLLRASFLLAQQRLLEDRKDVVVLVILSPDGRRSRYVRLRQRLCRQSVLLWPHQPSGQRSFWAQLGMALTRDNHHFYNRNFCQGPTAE

IC50 (human TLR8) [nM] | IC50 (human TLR7) [nM] | IC50 (human TLR9) [nM] | Structure (SMILES)
5 | 1.4 | 8380 | Cc1c(-c2[nH]c3ccc(C4CC5(C4)CN(CCC(N)=O)C5)nc3c2C(C)C)cn2ncnc2c1C [Example 1029]
1.9 | 3.1 | 6280 | Cc1c(-c2[nH]c3ccc(C4CC5(C4)CN(CCCS(C)(=O)=O)C5)nc3c2C(C)C)cn2ncnc2c1C [Example 1030]
2 | 18 | 12700 | COCCN1CC2(CC(c3ccc4[nH]c(-c5cn6ncnc6c(C)c5C)c(C(C)C)c4n3)C2)C1 [Example 1031]
196 | 1210 | 25400 | Cc1c(-c2[nH]c3ccc(N4CCN(CCN(C)C)C(=O)C4)nc3c2C(C)C)cn2ncnc2c1C [Example 1032]
974 | 1090 | 22400 | Cc1c(-c2[nH]c3ccc(N4CCN(C(=O)CN5CC6(COC6)C5)CC4)nc3c2C(C)C)cn2ncnc2c1C [Example 1033]
> 3120 | 1400 | 26600 | CNCCC(=O)N1C[C@H](C)N(c2ccc3[nH]c(-c4cn5ncnc5c(C)c4C)c(C(C)C)c3n2)C[C@H]1C [Example 1034]
21 | 1.7 | 3670 | Cc1c(-c2[nH]c3ccc(C4CCC(O)(CN)CC4)nc3c2C(C)C)cn2ncnc2c1C (stereo not drawn) [Example 1035, 1-(aminomethyl)-4-(2-(7,8-dimethyl-[1,2,4]triazolo[1,5-a]pyridin-6-yl)-3-isopropyl-1H-pyrrolo[3,2-b]pyridin-5-yl)cyclohexan-1-ol]
2.7 | 1.3 | 1930 | CC(C)c1c(-c2cn(C)c3ncccc23)[nH]c2ccc(C3CCC(N4CC5(COC5)C4)CC3)nc12 (stereo not drawn) [Example 1036]
6.2 | 3.1 | 1610 | COc1cc(-c2[nH]c3ccc(C4CCC(N5CC6(COC6)C5)CC4)nc3c2C(C)C)cn2ncnc12 (stereo not drawn) [Example 1037]
1.3 | 0.98 | 1910 | CCN(C1CCC(c2ccc3[nH]c(-c4cn5ncnc5c(C)c4C)c(C(C)C)c3n2)CC1)C1COC1 (stereo not drawn) [Example 1038]
6.4 | 7.2 | 3070 | CCN(C1CCC(c2ccc3[nH]c(-c4cn5ncnc5c(C)c4C)c(C(C)C)c3n2)CC1)C1COC1 (stereo not drawn) [Example 1039]
0.66 | 0.17 | 1110 | Cc1c(-c2[nH]c3ccc(C4CCC(N5CC(C)(C)C5)CC4)nc3c2C(C)C)cn2ncnc2c1C (stereo not drawn) [Example 1040]
0.85 | 0.49 | 2420 | Cc1c(-c2[nH]c3ccc(C4CCC(N5CC(C)(O)C5)CC4)nc3c2C(C)C)cn2ncnc2c1C (stereo not drawn) [Example 1041]
3.3 | 2.2 | 3320 | COC1CN(C2CCC(c3ccc4[nH]c(-c5cn6ncnc6c(C)c5C)c(C(C)C)c4n3)CC2)C1 (stereo not drawn) [Example 1042]
1.6 | 2.1 | 1750 | Cc1c(-c2[nH]c3ccc(C4CCC(NC5CCS(=O)(=O)CC5)CC4)nc3c2C(C)C)cn2ncnc2c1C (stereo not drawn) [Example 1043]
9.2 | 4.1 | 3600 | Cc1c(-c2[nH]c3ccc(C4CCC(N5CC(C)(O)C5)CC4)nc3c2C(C)C)cn2ncnc2c1C (stereo not drawn) [Example 1044]
3.6 | 4.8 | 3240 | COC1CN(C2CCC(c3ccc4[nH]c(-c5cn6ncnc6c(C)c5C)c(C(C)C)c4n3)CC2)C1 (stereo not drawn) [Example 1045]
2.4 | 0.64 | 2500 | Cc1c(-c2[nH]c3ccc(C4CCC(N5CC(O)C5)CC4)nc3c2C(C)C)cn2ncnc2c1C (stereo not drawn) [Example 1046]
3.5 | 1.3 | 4490 | Cc1c(-c2[nH]c3ccc(C4CCC(N5CC(C(=O)N(C)C)C5)CC4)nc3c2C(C)C)cn2ncnc2c1C (stereo not drawn) [Example 1047]

IC50 (human TLR8) [nM] | IC50 (human TLR7) [nM] | IC50 (human TLR9) [nM] | Structure (SMILES)
13 | 4.4 | 9830 | Cc1c(-c2[nH]c3ccc(C4CCC(N(C)C(C)C)CC4)nc3c2C(C)C)cn2ncnc2c1C (stereo not drawn) [Example 1048]
5.4 | 1.6 | 2600 | Cc1c(-c2[nH]c3ccc(C4CCC(N5CC(O)C5)CC4)nc3c2C(C)C)cn2ncnc2c1C (stereo not drawn) [Example 1049]
4.8 | 2.8 | 2660 | Cc1c(-c2[nH]c3ccc(C4CCC(N5CC(C(=O)N(C)C)C5)CC4)nc3c2C(C)C)cn2ncnc2c1C (stereo not drawn) [Example 1050]
1.5 | 0.41 | 1910 | Cc1c(-c2[nH]c3ccc(C4CCC(N5CCC5)CC4)nc3c2C(C)C)cn2ncnc2c1C (stereo not drawn) [Example 1051]
17 | 8.9 | 5920 | Cc1c(-c2[nH]c3ccc(C4CCC(N5CC(C)(C)C5)CC4)nc3c2C(C)C)cn2ncnc2c1C (stereo not drawn) [Example 1052]
4.8 | 2.5 | 4810 | Cc1c(-c2[nH]c3ccc([C@H]4CC[C@@H](N5CC6(C5)CS(=O)(=O)C6)CC4)nc3c2C(C)C)cn2ncnc2c1C [Example 1053]
1.7 | 5.4 | 1690 | Cc1c(-c2[nH]c3ccc(C4CCC(NC(C)(C)C)CC4)nc3c2C(C)C)cn2ncnc2c1C (stereo not drawn) [Example 1054]
8.3 | 4.3 | 5470 | Cc1c(-c2[nH]c3ccc(C4CCC(N5CC6(CCO6)C5)CC4)nc3c2C(C)C)cn2ncnc2c1C (stereo not drawn) [Example 1055]
1.2 | 2.1 | 2990 | Cc1c(-c2[nH]c3ccc(C4CCC(NC(C)(C)C)CC4)nc3c2C(C)C)cn2ncnc2c1C (stereo not drawn) [Example 1056]
1.7 | 0.81 | 2700 | Cc1c(-c2[nH]c3ccc(C4CCC(N5CC6(CCO6)C5)CC4)nc3c2C(C)C)cn2ncnc2c1C (stereo not drawn) [Example 1057]
3.5 | 1.9 | 5280 | Cc1c(-c2[nH]c3ccc(C4CCC(N5CCC(F)C5)CC4)nc3c2C(C)C)cn2ncnc2c1C (stereo not drawn) [Example 1058]
1.4 | 1.6 | 2250 | Cc1c(-c2[nH]c3ccc(C4CCC(N5CCC6(CCOC6)C5)CC4)nc3c2C(C)C)cn2ncnc2c1C (stereo not drawn) [Example 1059]
0.5 | 0.5 | 2600 | Cc1c(-c2[nH]c3ccc(C4CCC(N5CCC6(COC6)C5)CC4)nc3c2C(C)C)cn2ncnc2c1C (stereo not drawn) [Example 1060]
4.8 | 2.7 | 3180 | Cc1c(-c2[nH]c3ccc(C4CCC(N5CC6(CCOC6)C5)CC4)nc3c2C(C)C)cn2ncnc2c1C (stereo not drawn) [Example 1061]
25 | 13 | 10200 | Cc1c(-c2[nH]c3ccc(C4CCC(N5CCC(F)C5)CC4)nc3c2C(C)C)cn2ncnc2c1C (stereo not drawn) [Example 1062]
18 | 10 | 8060 | Cc1c(-c2[nH]c3ccc(C4CCC(N5CCC6(COC6)C5)CC4)nc3c2C(C)C)cn2ncnc2c1C (stereo not drawn) [Example 1063]
0.96 | 0.34 | 2460 | Cc1c(-c2[nH]c3ccc(C4CCC(N5CCOCC5)CC4)nc3c2C(C)C)cn2ncnc2c1C (stereo not drawn) [Example 1064]
1.1 | 1.1 | 2800 | Cc1c(-c2[nH]c3ccc(C4CCC(N5CC6(CCOC6)C5)CC4)nc3c2C(C)C)cn2ncnc2c1C (stereo not drawn) [Example 1065]
